Data taken from patent US10450316B2, “Certain protein kinase inhibitor” (Chongqing Fochon Pharmaceutical Co., Ltd., priority 2015, dated 2019).

Test system: BE(2)-C cell
Experiment: Cell proliferation assay (MTS) in BE(2)-C cells
Format: cell-based
Conditions: Homo sapiens, inhibition of BE(2)-C cell proliferation, 48 h
Summary of the method: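 Proliferation read-out was MTS absorbance at 490 nm, with 650 nm as reference, after a 2 h MTS incubation, giving IC50 values. Before reading, BE(2)-C cells plated at 3000 per well were exposed to nine compound concentrations from 10000 down to 1.5 nM for 48 h at 37 °C, 5% CO2.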

| Structure (SMILES) | IC50 |
| --- | --- |
| CCN1C[C@@H]2C[C@H]1CN2Cc1ccc(Nc2ncc(F)c(-c3cc(F)c4nc5n(c4c3)C3(CC5)CC3)n2)nc1 [Example 137, N-(5-(((1S,4S)-5-ethyl-2,5-diazabicyclo[2.2.1]heptan-2-yl)methyl)pyridin-2-yl)-5-fluoro-4-(5-fluoro-2,3-dihydrospiro[benzo[d]pyrrolo[1,2-a]imidazole-1,1′-cyclopropan]-7-yl)pyrimidin-2-amine] | 0.01 to 0.1 µM |
| CC1CCc2nc3c(F)cc(-c4nc(Nc5ccc(CN6CCNCC6)cn5)ncc4F)cc3n21 (stereo in doubt) [Example 155, (R)-5-fluoro-4-(5-fluoro-1-methyl-2,3-dihydro-1H-benzo[d]pyrrolo[1,2-a]imidazol-7-yl)-N-(5-(piperazin-1-ylmethyl)pyridin-2-yl)pyrimidin-2-amine] | > 0.1 µM |
| CCN1CCC2(CC1)CCN(Cc1ccc(Nc3ncc(F)c(-c4cc(F)c5nc6n(c5c4)C(C)(C)CC6)n3)nc1)CC2 [Example 122, N-(5-((9-ethyl-3,9-diazaspiro[5.5]undecan-3-yl)methyl)pyridin-2-yl)-5-fluoro-4-(5-fluoro-1,1-dimethyl-2,3-dihydro-1H-benzo[d]pyrrolo[1,2-a]imidazol-7-yl)pyrimidin-2-amine] | 0.01 to 0.1 µM |
| Fc1cnc(Nc2ccc(CN3CCC4(CCNCC4)CC3)cn2)nc1-c1cc(F)c2nc3n(c2c1)[C@H](C(F)(F)F)CC3 [Example 70, (S)-N-(5-((3,9-diazaspiro[5.5]undecan-3-yl)methyl)pyridin-2-yl)-5-fluoro-4-(5-fluoro-1-(trifluoromethyl)-2,3-dihydro-1H-benzo[d]pyrrolo[1,2-a]imidazol-7-yl)pyrimidin-2-amine] | > 1 µM |
| CCN1CC2CN(Cc3ccc(Nc4ncc(F)c(-c5cc(F)c6nc7n(c6c5)[C@H](C)CC7)n4)nc3)CC2C1 (stereo partly drawn) [Example 100, N-(5-((5-ethylhexahydropyrrolo[3,4-c]pyrrol-2(1H)-yl)methyl)pyridin-2-yl)-5-fluoro-4-((R)-5-fluoro-1-methyl-2,3-dihydro-1H-benzo[d]pyrrolo[1,2-a]imidazol-7-yl)pyrimidin-2-amine] | 0.01 to 0.1 µM |
| C[C@@H]1CCc2nc3c(F)cc(-c4nc(Nc5ccc(CN6C7CCC6CNC7)cn5)ncc4F)cc3n21 [Example 101, N-(5-((3,8-diazabicyclo[3.2.1]octan-8-yl)methyl)pyridin-2-yl)-5-fluoro-4-((R)-5-fluoro-1-methyl-2,3-dihydro-1H-benzo[d]pyrrolo[1,2-a]imidazol-7-yl)pyrimidin-2-amine] | > 0.1 µM |
| CC1(C)CCc2nc3c(F)cc(-c4nc(Nc5ccc(CN6CCC7(CCNCC7)CC6)cn5)ncc4F)cc3n21 [Example 120, N-(5-((3,9-diazaspiro[5.5]undecan-3-yl)methyl)pyridin-2-yl)-5-fluoro-4-(5-fluoro-1,1-dimethyl-2,3-dihydro-1H-benzo[d]pyrrolo[1,2-a]imidazol-7-yl)pyrimidin-2-amine] | > 0.1 µM |
| CN1CCC2(CC1)CCN(Cc1ccc(Nc3ncc(F)c(-c4cc(F)c5nc6n(c5c4)[C@H](C(F)(F)F)CC6)n3)nc1)CC2 [Example 71, (S)-5-fluoro-4-(5-fluoro-1-(trifluoromethyl)-2,3-dihydro-1H-benzo[d]pyrrolo[1,2-a]imidazol-7-yl)-N-(5-((9-methyl-3,9-diazaspiro[5.5]undecan-3-yl)methyl)pyridin-2-yl)pyrimidin-2-amine] | 0.01 to 0.1 µM |
| CCN1C2CC1CN(Cc1ccc(Nc3ncc(F)c(-c4cc(F)c5nc6n(c5c4)C4(CC6)CC4)n3)nc1)C2 [Example 134, N-(5-((6-ethyl-3,6-diazabicyclo[3.1.1]heptan-3-yl)methyl)pyridin-2-yl)-5-fluoro-4-(5-fluoro-2,3-dihydrospiro[benzo[d]pyrrolo[1,2-a]imidazole-1,1′-cyclopropan]-7-yl)pyrimidin-2-amine] | > 0.1 µM |
| CCN1CC2CCC(C1)N2Cc1ccc(Nc2cc(-c3cnc4nc5n(c4c3)C(C)(C)CC5)c(F)cn2)nc1 [Example 169, 4-(6,6-dimethyl-7,8-dihydro-6H-pyrrolo[1′,2′:1,2]imidazo[4,5-b]pyridin-3-yl)-N-(5-((3-ethyl-3,8-diazabicyclo[3.2.1]octan-8-yl)methyl)pyridin-2-yl)-5-fluoropyridin-2-amine] | > 0.1 µM |
| FC[C@@H]1CCc2nc3c(F)cc(-c4nc(Nc5ccc(CN6C7CCC6CNC7)cn5)ncc4F)cc3n21 [Example 32, N-(5-((3,8-diazabicyclo[3.2.1]octan-8-yl)methyl)pyridin-2-yl)-5-fluoro-4-((S)-5-fluoro-1-(fluoro-methyl)-2,3-dihydro-1H-benzo[d]pyrrolo[1,2-a]imidazol-7-yl)pyrimidin-2-amine] | > 0.1 µM |
| C[C@@H]1CCc2nc3c(F)cc(-c4nc(Nc5ccc(CN6CC7CCC(C6)N7C)cn5)ncc4F)cc3n21 [Example 105, 5-fluoro-4-((R)-5-fluoro-1-methyl-2,3-dihydro-1H-benzo[d]pyrrolo[1,2-a]imidazol-7-yl)-N-(5-((8-methyl-3,8-diazabicyclo[3.2.1]octan-3-yl)methyl)pyridin-2-yl)pyrimidin-2-amine] | 0.01 to 0.1 µM |
| CCN1CCC2(CC1)CCN(Cc1ccc(Nc3ncc(F)c(-c4cc(F)c5nc6n(c5c4)[C@H](CF)CC6)n3)nc1)CC2 [Example 31, (S)-N-(5-((9-ethyl-3,9-diazaspiro[5.5]undecan-3-yl)methyl)pyridin-2-yl)-5-fluoro-4-(5-fluoro-1-(fluoromethyl)-2,3-dihydro-1H-benzo[d]pyrrolo[1,2-a]imidazol-7-yl)pyrimidin-2-amine] | > 0.1 µM |
| CN1CC2(CCN(Cc3ccc(Nc4ncc(F)c(-c5cc(F)c6nc7n(c6c5)[C@H](C(F)(F)F)CC7)n4)nc3)CC2)C1 [Example 65, (S)-5-fluoro-4-(5-fluoro-1-(trifluoromethyl)-2,3-dihydro-1H-benzo[d]pyrrolo[1,2-a]imidazol-7-yl)-N-(5-((2-methyl-2,7-diazaspiro[3.5]nonan-7-yl)methyl)pyridin-2-yl)pyrimidin-2-amine] | 0.01 to 0.1 µM |
| Fc1cnc(Nc2ccc(CN3CC4(CCNCC4)C3)cn2)nc1-c1cc(F)c2nc3n(c2c1)[C@H](C(F)(F)F)CC3 [Example 61, (S)-N-(5-((2,7-diazaspiro[3.5]nonan-2-yl)methyl)pyridin-2-yl)-5-fluoro-4-(5-fluoro-1-(trifluoro-methyl)-2,3-dihydro-1H-benzo[d]pyrrolo[1,2-a]imidazol-7-yl)pyrimidin-2-amine] | > 0.1 µM |
| CCN1CCC2(CC1)CN(Cc1ccc(Nc3ncc(F)c(-c4cc(F)c5nc6n(c5c4)[C@H](C(F)F)CC6)n3)nc1)C2 [Example 44, (S)-4-(1-(difluoromethyl)-5-fluoro-2,3-dihydro-1H-benzo[d]pyrrolo[1,2-a]imidazol-7-yl)-N-(5-((7-ethyl-2,7-diazaspiro[3.5]nonan-2-yl)methyl)pyridin-2-yl)-5-fluoropyrimidin-2-amine] | 0.01 to 0.1 µM |
| CCN1C[C@@]2(C)CN(Cc3ccc(Nc4ncc(F)c(-c5cc(F)c6nc7n(c6c5)C5(CC7)CC5)n4)nc3)C[C@@]2(C)C1 [Example 140, N-(5-(((3aR,6aS)-5-ethyl-3a,6a-dimethyl-hexahydropyrrolo[3,4-c]pyrrol-2(1H)-yl)methyl)pyridin-2-yl)-5-fluoro-4-(5-fluoro-2,3-dihydro-spiro[benzo[d]pyrrolo[1,2-a]imidazole-1,1′-cyclopropan]-7-yl)pyrimidin-2-amine] | > 0.1 µM |
| C[C@@H]1CCc2nc3c(F)cc(-c4nc(Nc5ccc(CN6CCC7(CC6)CNC7)cn5)ncc4F)cc3n21 [Example 86, (R)-N-(5-((2,7-diazaspiro[3.5]nonan-7-yl)methyl)pyridin-2-yl)-5-fluoro-4-(5-fluoro-1-methyl-2,3-dihydro-1H-benzo[d]pyrrolo[1,2-a]imidazol-7-yl)pyrimidin-2-amine] | > 0.1 µM |
| Fc1cnc(Nc2ccc(CN3CC4CNC4C3)cn2)nc1-c1cc(F)c2nc3n(c2c1)C1(CC3)CC1 (centres unmarked) [Example 141, N-(5-((3,6-diazabicyclo[3.2.0]heptan-3-yl)methyl)pyridin-2-yl)-5-fluoro-4-(5-fluoro-2,3-dihydro-spiro[benzo[d]pyrrolo[1,2-a]imidazole-1,1′-cyclo-propan]-7-yl)pyrimidin-2-amine] | > 1 µM |
| CCN1CC2CN(Cc3ccc(Nc4ncc(F)c(-c5cc(F)c6nc7n(c6c5)[C@H](C(F)(F)F)CC7)n4)nc3)CC2C1 (stereo partly drawn) [Example 75, N-(5-((5-ethylhexahydropyrrolo[3,4-c]pyrrol-2(1H)-yl)methyl)pyridin-2-yl)-5-fluoro-4-((S)-5-fluoro-1-(trifluoromethyl)-2,3-dihydro-1H-benzo[d]pyrrolo[1,2-a]imidazol-7-yl)pyrimidin-2-amine] | 0.01 to 0.1 µM |
| CCN1CC2(CCN(Cc3ccc(Nc4ncc(F)c(-c5cc(F)c6nc7n(c6c5)[C@H](C)CC7)n4)nc3)CC2)C1 [Example 88, (R)-N-(5-((2-ethyl-2,7-diazaspiro[3.5]nonan-7-yl)methyl)pyridin-2-yl)-5-fluoro-4-(5-fluoro-1-methyl-2,3-dihydro-1H-benzo[d]pyrrolo[1,2-a]imidazol-7-yl)pyrimidin-2-amine] | 0.01 to 0.1 µM |
| Fc1cnc(Nc2ccc(CN3CCC4(CCNCC4)CC3)cn2)nc1-c1cc(F)c2nc3n(c2c1)[C@H](C(F)F)CC3 [Example 51, (S)-N-(5-((3,9-diazaspiro[5.5]undecan-3-yl)methyl)pyridin-2-yl)-4-(1-(difluoromethyl)-5-fluoro-2,3-dihydro-1H-benzo[d]pyrrolo[1,2-a]imidazol-7-yl)-5-fluoropyrimidin-2-amine] | > 0.1 µM |
| Fc1cnc(Nc2ccc(CN3CCN4CCC[C@@H]4C3)cn2)nc1-c1cc(F)c2nc3n(c2c1)C1(CC3)CC1 [Example 145, (R)-5-fluoro-4-(5-fluoro-2,3-dihydrospiro[benzo [d]pyrrolo[1,2-a]imidazole-1,1′-cyclopropan]-7-yl)-N-(5-((hexahydropyrrolo[1,2-a]pyrazin-2(1H)-yl)methyl)pyridin-2-yl)pyrimidin-2-amine] | 0.01 to 0.1 µM |
